# Measured values reported in patent US12264296B2, “Compositions that contain lipophilic plant material and surfactant, and related methods” (priority 2020, dated 2025).
# Assays:
# Assay type in all cases: physicochemical
# [1] = Thermal stability (decarboxylation) of CBDA; conditions: in Met10u solution
# [2] = Solubility in the amide-based surfactant DMDA (Met10u)
# Solubility in water = assay: Solubility in water
# [3] = Solubility of CBDA in mineral oil; conditions: oil or lipid, under certain conditions
smiles,measurement,setting,value
"C=C(C)[C@@H]1CCC(C)=C[C@H]1c1c(O)cc(CCCCC)c(C(=O)O)c1O [CBDA, Δ(9)-tetrahydrocannabidiolic acid]",temperature at which CBDA begins to lose its carboxylic moiety (decarboxylation) and become CBD,[1],at least 130 C
same,solubility of CBDA in Met10u,[2]; at 0 C,1%
same,solubility of CBDA in Met10u,[2]; at 60 C,100%
same,solubility in DMDA,[2]; at 70 C,over 1000 mg/ml DMDA
same,solubility of CBDA in water,"Solubility in water; temperature of 4 degrees Celsius or lower, pH 4 or lower",below 20 micrograms per milliliter
same,solubility of CBDA in water,"Solubility in water; temperature of 70 degrees Celsius or higher, pH of 10 or higher",over 20 milligrams per milliliter
same,solubility,[3],~6000 µg/mL
